Each structure is given as a SMILES string.

One experiment addresses AktK (Homo sapiens, UniProt P31749). In words: Luciferase-coupled chemiluminescence kinase assay (ATP consumption). Format: biochemical. The note with it: read-out: AKT-1 IC50. An outline of the steps: (§1)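 Activity is read as ATP depletion: luciferase-luciferin reagent added after a 3 h ambient-temperature kinase reaction, with total ATP use limited to 25-60%. Before ATP addition, 2.5-5 nM kinase and compound were preincubated 30 min in Tris pH 7.5/MgCl2/TX-100/DTT buffer; […].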

In another experiment the target is p70S6K (Homo sapiens, UniProt P23443). The description is as above. Format: biochemical. The procedure, abridged:
as §1

p70S6K, sequence (P23443 whole entry): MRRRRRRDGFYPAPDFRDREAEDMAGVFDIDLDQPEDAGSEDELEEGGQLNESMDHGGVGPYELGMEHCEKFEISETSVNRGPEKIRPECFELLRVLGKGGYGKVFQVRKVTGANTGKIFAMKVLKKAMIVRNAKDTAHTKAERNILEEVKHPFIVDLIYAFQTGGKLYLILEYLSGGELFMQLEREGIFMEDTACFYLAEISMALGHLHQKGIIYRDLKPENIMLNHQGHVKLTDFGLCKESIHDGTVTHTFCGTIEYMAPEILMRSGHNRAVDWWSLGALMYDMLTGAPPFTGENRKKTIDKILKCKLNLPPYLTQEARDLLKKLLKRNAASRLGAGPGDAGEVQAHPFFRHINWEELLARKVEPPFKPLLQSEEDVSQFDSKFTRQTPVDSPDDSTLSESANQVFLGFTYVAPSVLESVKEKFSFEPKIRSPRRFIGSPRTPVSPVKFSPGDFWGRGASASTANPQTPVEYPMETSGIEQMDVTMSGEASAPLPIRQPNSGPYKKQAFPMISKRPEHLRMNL
AktK, sequence (P31749 whole entry): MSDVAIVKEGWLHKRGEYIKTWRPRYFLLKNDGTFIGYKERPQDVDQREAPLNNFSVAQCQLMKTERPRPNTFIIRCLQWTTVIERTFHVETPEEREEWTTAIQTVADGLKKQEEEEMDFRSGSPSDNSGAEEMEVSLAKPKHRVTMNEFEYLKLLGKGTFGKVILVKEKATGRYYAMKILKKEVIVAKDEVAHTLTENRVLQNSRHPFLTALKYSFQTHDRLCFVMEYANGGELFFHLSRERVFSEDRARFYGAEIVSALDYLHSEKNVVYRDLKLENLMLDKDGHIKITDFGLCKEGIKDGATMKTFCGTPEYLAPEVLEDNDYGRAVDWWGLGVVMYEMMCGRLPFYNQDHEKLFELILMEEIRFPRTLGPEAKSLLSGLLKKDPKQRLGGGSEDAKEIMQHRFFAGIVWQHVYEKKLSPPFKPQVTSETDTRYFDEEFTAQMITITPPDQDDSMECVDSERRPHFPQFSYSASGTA

What is called IC50 is the concentration that inhibits the measured activity by half. Take `c1ccc(N2CCN(c3ncnc4[nH]ccc34)CC2)cc1` [Entry 295, 4-(4-phenylpiperazin-1-yl)-7H-pyrrolo[2,3-d]pyrimidine]: the IC50 is at least 10 µM on AktK and 0.1 to 1 µM against p70S6K.
In the same order, the values of `Clc1cccc(N2CCN(c3ncnc4[nH]ccc34)CC2)c1` [Entry 296, 4-[4-(3-chlorophenyl)piperazin-1-yl]-7H-pyrrolo[2,3-d]pyrimidine] are 1 to 10 µM and 0.1 to 1 µM.
The like results for `c1ccc(N2CCN(c3ncnc4[nH]ncc34)CC2)cc1` [Entry 297, 4-(4-phenylpiperazin-1-yl)-1H-pyrazolo[3,4-d]pyrimidine] were, in that order, at least 10 µM and 0.1 to 1 µM.
`Clc1cccc(N2CCN(c3ncnc4[nH]ncc34)CC2)c1` [Entry 298, 4-[4-(3-chlorophenyl)piperazin-1-yl]-1H-pyrazolo[3,4-d]pyrimidine]: the values for the 50% inhibitory concentration (IC50) on AktK and on p70S6K were at least 10 µM and 0.1 to 1 µM, respectively.
With `Clc1ccccc1N1CCN(c2ncnc3[nH]cnc23)CC1` [Entry 299, 6-[4-(2-chlorophenyl)piperazin-1-yl]-9H-purine], the IC50 on AktK was at least 10 µM; against p70S6K it was 1 to 10 µM.
On to `Fc1ccccc1N1CCN(c2ncnc3[nH]cnc23)CC1` [Entry 300, 6-[4-(2-fluorophenyl)piperazin-1-yl]-9H-purine], for which the IC50 is at least 10 µM on AktK and 1 to 10 µM against p70S6K.
The like results for `Cc1ccccc1N1CCN(c2ncnc3[nH]ccc23)CC1` [Entry 301, 4-[4-(2-methylphenyl)piperazin-1-yl]-7H-pyrrolo[2,3-d]pyrimidine] were, in that order, at least 10 µM and 0.1 to 1 µM.
The like results for `COc1ccccc1N1CCN(c2ncnc3[nH]ccc23)CC1` [Entry 302, 4-{4-[2-(methyloxy)phenyl]piperazin-1-yl}-7H-pyrrolo[2,3-d]pyrimidine] were, in that order, at least 10 µM and 0.1 to 1 µM.
For `COc1cccc(N2CCN(c3ncnc4[nH]ccc34)CC2)c1` [Entry 303, 4-{4-[3-(methyloxy)phenyl]piperazin-1-yl}-7H-pyrrolo[2,3-d]pyrimidine], the concentration for half-maximal inhibition (IC50) is at least 10 µM on AktK and 0.1 to 1 µM against p70S6K.
The like results for `COc1ccc(N2CCN(c3ncnc4[nH]ccc34)CC2)cc1` [Entry 304, 4-{4-[4-(methyloxy)phenyl]piperazin-1-yl}-7H-pyrrolo[2,3-d]pyrimidine] were, in that order, at least 10 µM and 1 to 10 µM.
For `FC(F)(F)c1cccc(N2CCN(c3ncnc4[nH]ccc34)CC2)c1` [Entry 305, 4-{4-[3-(trifluoromethyl)phenyl]piperazin-1-yl}-7H-pyrrolo[2,3-d]pyrimidine], the IC50 was at least 10 µM at AktK and 0.1 to 1 µM at p70S6K.
Regarding `COc1ccc(N2CCN(c3ncnc4[nH]cnc34)CC2)cc1` [Entry 306, 6-{4-[4-(methyloxy)phenyl]piperazin-1-yl}-9H-purine], the IC50 at AktK was at least 10 µM; on p70S6K, 1 to 10 µM.
Consider `COc1ccccc1N1CCN(c2ncnc3[nH]cnc23)CC1` [Entry 307, 6-{4-[2-(methyloxy)phenyl]piperazin-1-yl}-9H-purine], for which the IC50 on AktK is at least 10 µM; against p70S6K, 0.1 to 1 µM.
The like results for `Clc1ccc(N2CCN(c3ncnc4[nH]cnc34)CC2)cc1` [Entry 308, 6-[4-(4-chlorophenyl)piperazin-1-yl]-9H-purine] were, in that order, at least 10 µM and 1 to 10 µM.
On to `Fc1ccc(N2CCN(c3ncnc4[nH]cnc34)CC2)cc1` [Entry 309, 6-[4-(4-fluorophenyl)piperazin-1-yl]-9H-purine], for which the IC50 on AktK was at least 10 µM; against p70S6K it was 1 to 10 µM.
The like results for `Clc1ccc(N2CCN(c3ncnc4[nH]ccc34)CC2)cc1` [Entry 310, 4-[4-(4-chlorophenyl)piperazin-1-yl]-7H-pyrrolo[2,3-d]pyrimidine] were, in that order, at least 10 µM and 1 to 10 µM.
In the same order, the values of `Clc1ccccc1N1CCN(c2ncnc3[nH]ccc23)CC1` [Entry 311, 4-[4-(2-chlorophenyl)piperazin-1-yl]-7H-pyrrolo[2,3-d]pyrimidine] are at least 10 µM and 0.1 to 1 µM.

For the origin of these results see patent US8076338B2, “Kinase modulators and methods of use” (Exelixis, Inc., priority 2004, dated 2011).
